Values of other authors, collected in patent US20110144047A1, “COMBINED METHOD FOR PREDICTING THE RESPONSE TO AN ANTI-CANCER THERAPY” (DAKO DENMARK A/S, priority 2008, published 2011).

Tested on: murine fibro sarcoma cells derived from TIMP-1 gene-deficient mice
Settings: in vitro; previously published by the inventors

COc1cc([C@@H]2c3cc4c(cc3[C@@H](O[C@@H]3O[C@@H]5CO[C@@H](C)O[C@H]5[C@H](O)[C@H]3O)[C@H]3COC(=O)[C@H]23)OCO4)cc(OC)c1O [etoposide]
sensitivity of TIMP-1 gene-deficient cells compared with wild-type cells expressing TIMP-1: significantly more sensitive
